According to article PMC4787089 (Pharmacognosy Magazine, 2015):
Read-outs that look alike come from different tables or passages of the source.

What was measured:
[1] = target: T1, recombinant HDAC8 (Homo sapiens, UniProt Q9BY41); assay: Histone deacetylase 8 inhibitory assay; type: biochemical; conditions: 10 μM
T1 sequence (Q9BY41 1-377): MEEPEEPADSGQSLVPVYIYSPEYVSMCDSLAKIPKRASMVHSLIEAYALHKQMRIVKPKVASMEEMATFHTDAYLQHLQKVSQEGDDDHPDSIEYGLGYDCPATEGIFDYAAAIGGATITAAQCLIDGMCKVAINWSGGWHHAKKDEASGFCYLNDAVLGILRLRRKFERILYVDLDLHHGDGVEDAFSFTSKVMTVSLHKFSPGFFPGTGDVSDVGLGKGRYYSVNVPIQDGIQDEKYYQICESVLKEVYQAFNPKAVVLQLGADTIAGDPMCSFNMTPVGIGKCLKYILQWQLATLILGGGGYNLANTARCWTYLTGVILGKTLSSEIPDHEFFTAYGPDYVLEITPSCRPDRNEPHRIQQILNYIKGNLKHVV

[2] = system: tested cancer cell lines (HepG2, Hep2, HCT116, RD, MCF7); assay: In vitro cytotoxicity, summary statements over tested cancer cell lines; type: cell-based, human
[3] = system: bovine brain tubulin; assay: Tubulin polymerization assay; type: biochemical; conditions: 10 μM
[4] = Homo sapiens, RD, read-out: IC50 against cancer cell lines

| SMILES | Percentage inhibition HDAC8 activity [1] | IC50 [2, 4] [µM] | further results |
| --- | --- | --- | --- |
| O=Cc1ccc(CO)o1 [5-(hydroxymethyl)-2-furaldehyde] | < 30% |  |  |
| Nc1ncnc2c1ncn2[C@@H]1O[C@H](CO)[C@@H](O)[C@H]1O [Adenosine, adenosine] | stimulated HDAC8 activity |  |  |
| O=c1ccc2ccc3occc3c2o1 [Angelicin, angelicin] |  | < 20 | SI against cancer cell lines ([2]; tested cancer cell lines (extract and quercetin: except RD cells)): > 7 |
| O=C(/C=C/c1ccc(O)c(O)c1)O[C@@H]1C[C@](O)(C(=O)O)C[C@@H](O)[C@H]1O [Chlorogenic acid, chlorogenic acid] |  |  | Percentage inhibition tubulin polymerization [3]: moderate inhibition |
| CC(=O)OC1c2c(ccc3ccc(=O)oc23)OC(C)(C)C1OC(=O)C(C)(O)C(C)O (stereo not shown) [Hyuganin E, hyuganin E] |  |  | SI (good selectivity), Hep2, HCT116, and MCF7 ([2]; Hep2, HCT116, and MCF7): > 3; IC50 ([2]; read-out: IC50 values against Hep2, HCT116, and MCF7, Hep2, HCT116, and MCF7): < 25 µM |
| O=c1cc(-c2ccc(O)c(O)c2)oc2cc(O)cc(O)c12 [Luteolin, luteolin] |  | < 20 |  |
| O=c1c(O)c(-c2ccc(O)c(O)c2)oc2cc(O)cc(O)c12 [Quercetin, quercetin] |  | < 20 |  |
| CC[C@H](CC[C@@H](C)[C@H]1CC[C@H]2[C@@H]3CC=C4C[C@@H](O[C@@H]5O[C@H](CO)[C@@H](O)[C@H](O)[C@H]5O)CC[C@]4(C)[C@H]3CC[C@]12C)C(C)C [β-Sitosterol-3-O-glucoside, β-sitosterol-3-O-glucoside] | stimulated HDAC8 activity |  |  |
